Data on two molecules can be found in paper PMC12019328, “Discovery of an ApoE4-targeted small-molecule SirT1 enhancer for the treatment of Alzheimer’s disease” (Scientific Reports, 2025).

Several values for one entry are separate records, joined by “and”; a condition that tells them apart may be missing. Equal values may be shown once.

Data set [1] deals with SirT1 protein in N2a-E4 cells. In words: SirT1 protein levels in N2a-E4 cells (AlphaLISA). Format: cell-based, murine. On the procedure:
Relative SirT1 mRNA and protein enhancement by racemate DDL-214 and enantiomers DDL-218 and − 219 was determined in murine neuroblastoma cells stably transfected with ApoE4 (N2a-E4)[25]. All test compounds in DMSO were prepared at 2x the final concentration in DMEM supplemented with 10% fetal bovine serum (FBS) and 1% pen-strep (PS) and 50 µL of each loaded into individual wells of a 96-well plate. Previously cultured N2a-E4 were then trypsinized, harvested, centrifuged, and counted; then 50 µL of cell suspension adjusted to 400 cells/µL was added to each well. The plate was then incubated at 37 °C, 5% CO2 for 48 h. Cells were treated with DDL-214, DDL-218, or DDL-219 at 5 µM final then incubated for 24 h. After incubation, the cells were lysed with 50 µL of ice-cold lysis buffer (0.4% SDS, 3.5% Triton X-100, 0.02% sodium deoxycholate, 28 mM TRIS pH 8) complemented with 1X final Halt™ Protease and Phosphatase Inhibitor Cocktail (Thermo Fisher catalog # 78442), placed on ice for 10 min and at -80 °C, followed by 3 freeze/thaw cycles.
An AlphaLISA comprising streptavidin donor beads (Revvity catalog # 6760002 S), biotinylated anti-SirT1 N-terminal antibody (monoclonal 19A7AB4, Abcam catalog # ab110304), and acceptor beads (Revvity catalog # 6772001) conjugated to the anti-SirT1 C-terminal antibody (monoclonal 1F3, Abcam catalog # ab104833) was used to determine SirT1 protein levels. […] The plates were read using an Envision plate reader.
Figure S3B. […] Compound treatment was done at 5 and 50 µM. SirT1 levels were measured by AlphaLISA followed and normalized to protein […]
Brain tissue was homogenized in PBS (pH 7.4) (1: 3 weight(mg)/volume(µL)) and the protein concentration of was determined using the Micro BCA™ Protein Assay Kit (Thermo Fisher Scientific, Cat#23235). […]
(§1) The % of the unbound drug (fu,bound) was calculated using the following equation: fu,bound = [normalized peak area in buffer side / normalized peak area in brain side] x 100 Liver Microsome Stability [t1/2 (min)] […]
Background: Alpha assays give light when donor and acceptor beads are brought close together.

Data set [2] is described as follows: In vivo pharmacokinetic analysis, brain levels after oral gavage. On the set-up: species or system C57BL/6J mice. The conditions noted are these: single time point one hour, oral gavage 30 mg/Kg, n = 1; 30 mg/kg. As to the method:
[…] One hour later, mice were euthanized by pentobarbital over-anesthesia and trans-cardial collection of blood for isolation of plasma by centrifugation at 10,000 x g for 10 min at 4 °C. Brain tissue was collected for analysis, frozen on dry ice and stored at -80 °C before analysis.
For LC/MS/MS analysis, tissue samples were homogenized in a bead beater using 5 volumes of ice-cold 80% acetonitrile (1/5; mg of tissue/ µL of 80% ACN). Solutions were clarified by centrifugation (16,000 x g, 5 min) and the supernatants were transferred to new tubes and lyophilized. Samples were reconstituted in 100 µL of 50/50/0.1 (water/acetonitrile/formic acid) before analysis via liquid chromatography-tandem mass spectrometry.
A 6460 triple quadrupole mass spectrometer (Agilent Technologies) coupled to a 1290 Infinity HPLC system (Agilent Technologies) with a Phenomenex analytical column (Kinetex 1.7 μm C18 100 Å 100 × 2.1 mm) was used for HPLC. The HPLC method utilized a mixture of solvent A (99.9/1 water/formic acid) and solvent B (99.9/1 acetonitrile/formic acid) and a gradient was used for the elution of the compounds (min/%B: 0/20, 3/20, 19/99, 20/99, 21/20, 30/20).
An internal standard (IS; Reserpine) was added to every sample to account for compound loss during sample processing. Standards were made in drug naïve brain and plasma with increasing amounts of DDL-214- (S1,S2: 0.1 pmol/ S3,S4: 1 pmol/ S5,S6: 10 pmol/ S7,S8: 100 pmol/ S9,S10: 1000 pmol). The standard curve was made by plotting the amount of each compound per standard vs. the ratio of measured chromatographic peak areas corresponding to DDL-214 (DDL-214 -/Reserpine). The trendline equation was then used to calculate the absolute concentrations of DDL-214/-218/-219 in brain tissue and plasma.

Data set [3] in a line: Brain tissue binding (dialysis of brain homogenate). The conditions noted are these: pH 7.4, brain homogenate 20 mg/mL, 2 µM compound, 37 °C, read-out: Brain Tissue Binding [fu,bound (%)]. Format: in vitro ADME. On the procedure:
Figure S3B. SirT1 protein levels in N2a-E4 cells after A03 and DDL-214 treatment. Compound treatment was done at 5 and 50 µM. SirT1 levels were measured by AlphaLISA followed and normalized to protein […]
DDL-218 Physiochemical Properties
Brain Tissue Binding [fu,bound (%)]
Brain tissue was homogenized in PBS (pH 7.4) (1: 3 weight(mg)/volume(µL)) and the protein concentration of was determined using the Micro BCA™ Protein Assay Kit (Thermo Fisher Scientific, Cat#23235). Brain homogenate was diluted to 20 mg/mL in PBS (pH 7.4) and added to Slide-A-Lyzer™ MINI Dialysis Devices, 10K MWCO dialysis cups (Thermo Fisher Scientific, Cat#PI88401) in 48-well plate containing PBS (500 µL; pH 7.4). 1 µL of […] compound was added to the brain homogenate (Final Concentration: 2 µM compound, 0.5% DMSO) and incubated on a rocker for 4.5 hours at 37 °C. 50 µL of brain homogenate (within the dialysis cup) and PBS (within the 48-well plate) were transferred to new microcentrifuge tubes containing 200 µL of quenching reagent (100% Acetonitrile) containing internal standard. […]
as §1

With `C#Cc1ccc(CC(C)(C)NC(=O)[C@H](C)N)cc1` [DDL-220], the “SirT1 increase over vehicle” value in data set [1] (50 uM in N2a-E4 cells) was found to be 30%.
In the case of `CC(N)C(=O)OC(C)(C)Cc1ccncc1` (stereo not shown) [DDL-218], the brain levels in data set [2] is ~ 8400 ng/g and 37.8 µM. Further, in data set [1] (N2a-E4 cells, 5 µM, 24 h, vs DMSO control), the SirT1 protein levels result was “greatest increase in SirT1 protein”. In addition, in data set [3], the fraction unbound at 4.5 h, 2 µM is 0.43.
